This note sets out measurements from paper PMC8619673 (Cells, 2021).

The test system of one data set is BAX. In words: Western blot, BAX. The data set is classed as cell-based, Human. The following applies: 5 µM; induced untreated 182%. As for the experimental part: (§1) Cellular proteins were prepared using a lysis buffer containing NaCl (150 mM), ethylene diamine tetraacetic acid (EDTA, 1 mM, pH8.0), Tris-HCl (50 mM, pH8.0), ethylene glycol tetraacetic acid (EGTA, 1 mM, pH8.0), sodium dodecyl sulfate (SDS, 0.1%), sodium deoxycholate (SD, 0.5%), Triton X-100 (1%), and protease (Sigma-Aldrich), and phosphatase (Abcam, Cambridge, MA, USA) inhibitor cocktails. After quantitation by protein assay kit (Bio-Rad, Hercules, CA, USA), 20 µg proteins were separated by SDS-polyacrylamide (10%) gel electrophoresis and transferred to polyvinylidene difluoride (PVDF) membranes (Sigma-Aldrich) using a Mini Trans-Blot cell (Bio-Rad). After blocking, the membrane was probed with anti-TRKB, anti-p-TRKB (Y516), anti-p-TRKB (Y817) (1:500; Cell Signaling, Danvers, MA, USA), anti-ERK, anti-p-ERK (T202/Y204) (1:1000; Cell Signaling), anti-AKT, anti-p-AKT (S473) (1:1000; Cell Signaling), anti-CREB, anti-p-CREB (S133) (1:1000; Millipore, Billerica, MA, USA), anti-BDNF, anti-BCL2 (1:500; Santa Cruz Biotechnology, Santa Cruz, CA, USA), anti-BAX (1:1000; Cell Signaling), anti-β-tubulin (1:500; Sigma-Aldrich), or anti-GAPDH (1:1000, MDBio, Taipei, Taiwan) antibody. The immune complexes were detected using goat anti-mouse or goat anti-rabbit IgG antibody conjugated with horseradish peroxidase (1:5000; GeneTex, Irvine, CA, USA) and chemiluminescent substrate (Millipore).
(In general: Immunoblotting shows a protein as a band on a membrane.)

For another data set, the system named is BCL2. In words: Western blot, BCL2. The class given is cell-based, Human. The note with it: 5 µM; induced untreated 72%. Here is the method:
as §1

The next data set has as its system Aβ-GFP RNA. Nature of the data set: Real-time PCR of Aβ-GFP RNA. The data set is classed as cell-based, Human. The following applies: 5 μM; untreated 28.6; not significantly affected. The text has this:
RNA was extracted using TRIzol reagent (Invitrogen, Carlsbad, CA, USA), followed by treatment with DNase I (Stratagene, La Jolla, CA, USA). cDNA was synthesized by SuperScript™ III reverse transcriptase (Invitrogen) according to manufacturer’s instruction and used to determine Aβ-GFP mRNA expression by StepOnePlus™ Real-time PCR system (Applied Biosystems, Foster City, CA, USA) using customized GFP primers (forward primer: 5′-[…]-3′, reverse primer: 5′-[…]-3′), FAM/NFQ probe (5′-[…]-3′), and TaqMan hypoxanthine phosphoribosyltransferase 1 (HPRT1) endogenous control (VIC/MGB probe, 4326321E) (Applied Biosystems). Fold change was calculated using the formula 2^ΔCt, ΔCT = CT (HPRT1)—CT (GFP), in which CT indicates the number of threshold cycles.
Background: Real-time PCR tracks product formation cycle by cycle.

A further data set relates to ERK. Nature of the data set: Western blot, p-ERK. The class given is cell-based, Human. The following applies: 5 µM; induced untreated 79%. Here is the method: as §1
Another data set can be described thus: in vitro. The following applies: PAMPA. As for the experimental part: PAMPA was used to predict the penetration of the tested compounds across the BBB. […] The filter PVDF membrane (pore size 0.45 μm; Millipore) was coated with 4 μL of porcine polar brain lipid (20 mg/mL; Avanti Polar Lipids, Alabaster, AL, USA) in dodecane and the acceptor well filled with 200 μL of 5% DMSO in PBS. The filter plate was carefully placed on the donor plate to form a sandwich plate at room temperature for 18 h. After the permeation time, the filter and donor plates were separated. The concentration of the tested compound in the donor and acceptor wells was measured by an AB Sciex QTrap 5500 mass spectrometer (Applied Biosystems) linked to a 1200 HPLC system (Agilent Technologies, Palo Alto, CA, USA). The concentrations of the QC compounds were determined by a Tecan Infinite M200 Pro microplate reader (Switzerland). The effective permeability coefficient (Pe) was calculated as described. Each compound was tested in triplicate.

Setting [1] is: BBB Permeability Classification.
Where [2] appears, read: Measured Pe (effective permeability).

What is called Papp is the rate of passage across a membrane or cell layer, normalised by area and donor concentration. Read a high Papp as fast passage. Turning to `CCOC(=O)c1cc2c(O)cccc2oc1=O` [ZN014, ethyl 5-hydroxy-2-oxo-2H-chromene-3-carboxylate], the “BAX protein level relative to uninduced cells (100%)” value in the data set with BAX is 126%. In the data set with BCL2, the “BCL2 protein level relative to uninduced cells (100%)” value was 104–116%. Also, in the data set with Aβ-GFP RNA, the “Relative Aβ-GFP/HPRT1 RNA level” value is listed as 29.2–30.0 folds of induction. The “p-ERK (T202/Y204) protein level relative to uninduced cells (100%)” value in the data set on ERK is given as 95–107%. For the same compound, the values for the Papp at 18 h, 1 μM in the data set “in vitro” (setting [1]) and in “in vitro” (setting [2]) were less than 2 ×10⁻⁶ cm/s and 0.56 ± 0.01 ×10⁻⁶ cm/s, respectively.
Consider `O=C(/C=C/c1ccccc1O)c1c(O)c2ccccc2oc1=O` [ZN015, (E)-4-hydroxy-3-(3-(2-hydroxyphenyl)acryloyl)-2H-chromen-2-one], for which the “BAX protein level relative to uninduced cells (100%)” value in the data set with BAX came out at 126%. In the data set on BCL2, the “BCL2 protein level relative to uninduced cells (100%)” value is listed as 104–116%. In the data set on Aβ-GFP RNA, the “Relative Aβ-GFP/HPRT1 RNA level” value is given as 29.2–30.0 folds of induction. Also, the “p-ERK (T202/Y204) protein level relative to uninduced cells (100%)” value with ERK is 95–107%. The apparent permeability (Papp) at 18 h, 1 μM is greater than 4 ×10⁻⁶ cm/s in the data set “in vitro” (setting [1]) and 5.16 ± 0.11 ×10⁻⁶ cm/s in “in vitro” (setting [2]).
